{"source": "paper PMC8113213", "about": "“Physiologically based kinetic modelling based prediction of in vivo rat and human acetylcholinesterase (AChE) inhibition upon exposure to diazinon” (Archives of Toxicology, 2021)", "key": {"[1]": {"test_system": "CYP450", "test": "in vitro", "format": "in vitro ADME, human", "details": "for Km: human", "experimental": "(§1) The in vitro incubations for investigating CYP450-mediated biotransformation of DZN were performed using rat and human liver microsomes based on the method described by Sams et al. ([2004]) and Smith et al. ([2011]) with some modifications. Preliminary studies were carried out to optimize both incubation time and microsomal protein concentration, to define conditions at which metabolism was linear with respect to time and the amount of microsomal protein (data not shown) to be used for further kinetic studies. The final incubations contained 50 mM Tris–HCl (pH 7.4), 5 mM MgCl2, 1 mM EDTA (as an A-esterase PON1 inhibitor) (Bizoń and Milnerowicz [2018]), 50 µM iso-OMPA (as a B-esterases inhibitor) (Lane et al. [2006]), 1 mM NADPH, and DZN at final concentrations of 1, 2.5, 5, 10, 25, 50, 100 and 250 µM (added from 100 times concentrated stock solutions in methanol). […] Addition of esterase inhibitors EDTA and iso-OMPA has been commonly applied when studying CYP450-mediated conversion of organophosphate (OP) pesticides in liver microsomal incubations for determining kinetic parameters for their CYP450-mediated pathways (Buratti et al. [2005]; Dadson et al. [2013]; Ellison et al. [2012]; Foxenberg et al. [2007]; Poet et al. [2003]; Smith et al. [2011]). Based on previous studies, CYP450-mediated activities are not adversely affected by the addition of these inhibitors (1 mM EDTA and 50 µM iso-OMPA) to the microsomal incubations (Buratti et al. [2003]; Rasmussen [2012]). After 1 min preincubation in a 37 °C water bath, 2.5 µl of human or rat liver microsomes (final concentration 0.25 mg microsomal protein/ml) were added to initiate the reaction. The total incubation mixture was 200 µl. Control incubations were carried out by replacing NADPH with buffer. The reaction was terminated after 2.5 min by adding 200 µl ice-cold ACN. After the incubation, samples were centrifuged at 16000 g (4℃) for 5 min, and supernatants of rat samples were further diluted 2 × in a mixture of ACN and 50 mM Tris–HCl (pH 7.4) (ratio 1:1, v/v). At the end, both diluted rat sample supernatants and undiluted human sample supernatants were analysed by LC–MS/MS for quantification of metabolite formation.\nThe chromatographic separations were conducted on a Kinetex® 1.7 µm Phenyl-Hexyl 100 Å LC column (100 × 2.1 mm). The injection volume was 1 µl at a flow rate of 0.3 ml/min. The temperature of the column was kept at 40℃. The mobile phase A consisted of ultrapure water with 0.1% (v/v) formic acid, and mobile phase B consisted of acetonitrile (ACN) with 0.1% (v/v) formic acid. […] The instrument was used in positive mode with multiple reaction monitoring (MRM). The optimized acquisition parameters for DZN, DZO and the metabolite IMHP are listed in Supplementary data I. […]"}, "[2]": {"test_system": "RBC AChE", "details": "ref USEPA 2016, cited from earlier work; for Reported BMDL10 from EPA (pups): RBC AChE inhibition in female rat pups (PND11)"}, "[3]": {"test_system": "CYP450", "test": "in vitro", "format": "in vitro ADME, rat", "details": "for Km: rat", "experimental": "as §1\nThe chromatographic separations were conducted on a Kinetex® 1.7 µm Phenyl-Hexyl 100 Å LC column (100 × 2.1 mm). The injection volume was 1 µl at a flow rate of 0.3 ml/min. The temperature of the column was kept at 40℃. The mobile phase A consisted of ultrapure water with 0.1% (v/v) formic acid, and mobile phase B consisted of acetonitrile (ACN) with 0.1% (v/v) formic acid. […] The instrument was used in positive mode with multiple reaction monitoring (MRM). The optimized acquisition parameters for DZN, DZO and the metabolite IMHP are listed in Supplementary data I.\nThe calculation was done using GraphPad Prism 5 for Windows, version 5.04 (GraphPad software, San Diego California USA)."}, "[4]": {"format": "in vitro ADME", "details": "intestinal microsomes, data not shown", "experimental": "The physiological parameters for rat and human were obtained from Brown et al. ([1997]) as well as Gearhart et al. ([1990]), and are summarised in Table 1. […] The kinetic parameters for biotransformation of DZN in rat and human were obtained by conducting in vitro liver microsomal/plasma incubations as described in the section “In vitro metabolic incubations for deriving kinetic parameters”. […] The first-pass metabolism of DZN by the intestine was not taken into account in the current model because the metabolic conversion in the intestine derived from the conversion in incubations with intestinal microsomes upon scaling to the whole organ, appeared less than 5% of that obtained in a similar way for the liver (data not shown). […] To scale the in vitro Vmax values to the in vivo situation, the following scaling factors were used; 35 mg microsomal protein/g liver for rat hepatic metabolism (Medinsky et al. [1994]), 32 mg microsomal protein/g liver for human hepatic metabolism (Barter et al. [2007]), 77 mg plasma protein/ml plasma (total plasma protein concentration) for human plasma metabolism, and 60 mg plasma protein/ml plasma (total plasma protein concentration) for rat plasma metabolism. Plasma volume in rat and human were assumed as 55% of their corresponding blood volume (O'Neil [1999]). The Km values determined in vitro were assumed to be equal to in vivo Km values. […]"}, "[5]": {"test_system": "natural human RBC AChE", "details": "ref Fakhri-Bafghi et al. 2016; cited from earlier work"}, "[6]": {"details": "rat versus human liver microsomes"}}, "note": "Like-named read-outs stand apart in the source and are kept apart here."}
{"smiles": "CCOP(=S)(OCC)Oc1cc(C)nc(C(C)C)n1", "note": "[DZN, O,O-diethyl O-2-isopropyl-6-methylpyrimidin-4-yl phosphorothioate]", "values": [{"measurement": "Vmax DZN to DZO", "setting": "[1]; human liver microsomes", "result": "0.187 nmol/min/mg microsomal protein"}, {"measurement": "Vmax DZN to IMHP", "setting": "[1]; human liver microsomes", "result": "0.665 nmol/min/mg microsomal protein"}, {"measurement": "Km", "setting": "[1]; pH 7.4, Km DZN to DZO, human liver microsomes", "result": 59.6, "unit": "µM"}, {"measurement": "Km", "setting": "[1]; pH 7.4, human liver microsomes, read-out: Km DZN to IMHP", "result": 16.3, "unit": "µM"}, {"measurement": "Reported BMDL10 from EPA (pups)", "setting": "[2]", "result": 3, "unit": "mg/kg bw"}, {"measurement": "Reported BMDL10 from EPA (pups)", "setting": "[2]; listed as Diazinon", "result": 3.0, "unit": "mg/kg bw"}, {"measurement": "BMDL10 for inhibition of RBC AChE", "setting": "[2]; male adult rats, oral DZN", "result": 4.804, "unit": "mg/kg bw/day"}, {"measurement": "Reported BMDL10 from EPA (adult rat)", "setting": "[2]", "result": 4.8, "unit": "mg/kg bw"}, {"measurement": "Vmax DZN to DZO", "setting": "[3]; rat liver microsomes", "result": "0.288 nmol/min/mg microsomal protein"}, {"measurement": "Vmax DZN to IMHP", "setting": "[3]; rat liver microsomes", "result": "1.098 nmol/min/mg microsomal protein"}, {"measurement": "CYP450-mediated detoxification, more efficient in rat compared to human", "setting": "[3]; [6]", "result": 15, "unit": "fold"}, {"measurement": "lower Km for CYP450-mediated bioactivation in rat than in human", "setting": "[3]; [6]", "result": 12.6, "unit": "fold"}, {"measurement": "lower Km for CYP450-mediated detoxification in rat than in human", "setting": "[3]; [6]", "result": 9.3, "unit": "fold"}, {"measurement": "unscaled catalytic efficiency of CYP450-mediated bioactivation, higher in rat than human", "setting": "[3]; [6]", "result": 20, "unit": "fold"}, {"measurement": "Km", "setting": "[3]; pH 7.4, Km DZN to DZO, rat liver microsomes", "result": 4.75, "unit": "µM"}, {"measurement": "Km", "setting": "[3]; pH 7.4, rat liver microsomes, read-out: Km DZN to IMHP", "result": 1.76, "unit": "µM"}, {"measurement": "metabolic conversion in the intestine scaled to the whole organ, relative to that for the liver", "setting": "[4]", "result": "less than 5%"}, {"measurement": "IC50", "setting": "[5]", "result": 24.4, "unit": "µM"}]}
